From patent publication US6770650B2, “Cyclic amine derivatives-CCR-3 receptor antagonists” (Syntex (U.S.A.) LLC, priority 1997, dated 2004) come the findings set out here.

Data set [1] relates to CCR-3 L1.2 transfectant cells. The data set can be described thus: Inhibition of eotaxin mediated chemotaxis of CCR-3 L1.2 transfectant cells. It is filed as cell-based. As to conditions: concentration required to reduce eotaxin mediated chemotaxis of CCR-3 L1.2 transfected cells by 50%. On the procedure: The CCR-3 antagonistic activity of the compounds of this invention was determined by measuring the inhibition of eotaxin mediated chemotaxis of the CCR-3 L1.2 transfectant cells, using a slight modification of the method described in Ponath, P. D. et al., J. Clin. Invest. 97: 604-612 (1996). The assay was performed in a 24-well chemotaxis plate (Costar Corp., Cambridge Mass.) CCR-3 L1.2 transfectant cells were grown in culture medium containing RPMI 1640, 10% Hyclone™ fetal calf serum, […] 2-mercaptoethanol and Geneticin 418 (0.8 mg/ml). 18-24 hours before the assay, the transfected cells were treated with n-butyric acid at a final concentration of 5 mM/1×10^6 cells/ml, isolated and resuspended at 1×10^7 cells/ml in assay medium containing equal parts of RPMI 1640 and Medium 199 (M 199) with 0.5% bovine serum albumin.
Human eotaxin suspended in phosphate buffered saline at 1 mg/ml was added to bottom chamber in a final concentration of 100 nm. Transwell culture inserts (Costar Corp., Cambridge Mass.) having 3 micron pore size were inserted into each well and L1.2 cells (1×10^6) were added to the top chamber in a final volume of 100 μl. Test compounds in DMSO were added both to the top and bottom chambers such that the final DMSO volume was 0.5%. The assay was performed against two sets of controls. The positive control contained cells with no test compound in the top chamber and only eotaxin in the lower chamber. The negative control contained cells with no test compound in the top chamber and neither eotaxin nor test compound in lower chamber. The plate was incubated at 37° C. After 4 h, the inserts were removed from the chambers and the cells that had migrated to the bottom chamber were counted by pipetting out 500 μl of the cell suspension from the lower chamber to 1.2 ml Cluster tubes (Costar) and counting them on a FACS for 30 sec.
The IC50 value (concentration of test compound required to reduce eotaxin mediated chemotaxis of CCR-3 L1.2 transfected cells by 50%) for some of the compounds of the invention was: […]

For data set [2], the target named is T1, CCR-3 receptor (Homo sapiens, UniProt P51677).
T1 construct: expressed in transfected cells; host or cells: L1.2 cells (murine pre-B lymphoma line)
T1 sequence (P51677 1-355): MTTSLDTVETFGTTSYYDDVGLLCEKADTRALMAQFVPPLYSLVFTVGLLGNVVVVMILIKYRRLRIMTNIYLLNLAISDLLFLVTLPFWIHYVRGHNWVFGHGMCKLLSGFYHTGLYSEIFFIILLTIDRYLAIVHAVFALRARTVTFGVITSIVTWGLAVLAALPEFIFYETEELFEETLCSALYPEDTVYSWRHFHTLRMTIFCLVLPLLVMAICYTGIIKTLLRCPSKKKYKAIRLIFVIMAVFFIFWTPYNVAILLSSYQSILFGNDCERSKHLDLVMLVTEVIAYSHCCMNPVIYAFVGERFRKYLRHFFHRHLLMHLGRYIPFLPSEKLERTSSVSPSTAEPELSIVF
Kind of data set: CCR-3 Receptor Binding Assay, inhibition of 125I eotaxin binding to CCR-3 L1.2 transfectant cells. As to conditions: concentration required to reduce 125I-eotaxin binding to the CCR-3 L1.2 transfected cells by 50%. Here is the method:
The CCR-3 antagonistic activity of the compounds of the invention was determined by their ability to inhibit the binding of ^125I eotaxin to CCR-3 L1.2 transfectant cells ((see Ponath, P. D. et al., J. Exp. Med., Vol. 183, 2437-2448, (1996)).
The assay was performed in Costar 96-well polypropylene round bottom plates. Test compounds were dissolved in DMSO and then diluted with binding buffer (50 mM HEPES, 1 mM CaCl2, 5 mM MgCl2, 0.5% bovine serum albumin (BSA), 0.02% sodium azide, pH 7.24) such that the final DMSO concentration was 2%. 25 μl of the test solution or only buffer with DMSO (control samples) was added to each well, followed by the addition of 25 μl of ^125I-eotaxin ([…]) (NEX314, New England Nuclear, Boston, Mass.) and 1.5×10^5 of the CCR-3 L1.2 transfected cells in 25 μl binding buffer. The final reaction volume was 75 μl.
After incubating the reaction mixture for 1 h at room temperature, the reaction was terminated by filtering the reaction mixture through polyethylenimine treated Packard Unifilter GF/C filter plate (Packard, Chicago, Ill.). The filters were washed four times with ice cold wash buffer containing 10 mm HEPES and 0.5M sodium chloride (pH 7.2) and dried at 65° C. for approximately 10 min. 25 μl/well of Microscint-20™ scintillation fluid (Packard) was added and the radioactivity retained on the filters was determined by using the Packard TopCount™.
The IC50 value (concentration of test compound required to reduce ^125I-eotaxin binding to the CCR-3 L1.2 transfected cells by 50%) for some of the compounds of the invention was: […]

As to `Cc1ccc(C(=O)N[C@H](CN2CCC(Cc3ccc(Cl)c(Cl)c3)CC2)C(C)C)cc1` [compound 57, N-{1-(S)-[4-(3,4-Dichlorobenzyl)piperidin-1-ylmethyl]-2-methylpropyl}-4-methylbenzamide], in data set [1], the IC50 (commonly the midpoint of a concentration-inhibition curve) was determined as 240 nM.

Turning to `COc1cccc(NC(=O)NC2CCCCC2N2CCN(Cc3ccc(Cl)c(Cl)c3)CC2)c1` (racemic) [compound 84, 1-{2(RS)-[4-(3,4-Dichlorobenzyl)piperazin-1-yl]cyclohexyl}-3-(3-methoxyphenyl)urea], the values for the IC50 in data set [2] and in data set [1] were 690 nM and 460 nM, respectively.

Consider `COc1cc(N)c(Cl)cc1C(=O)NCC1CCN(CC(NC(=O)c2ccc(C)cc2)C(C)C)CC1` (racemic) [compound 59, N-{1-(RS)-[4-(4-Amino-5-chloro-2-methoxyphenylcarbonylaminomethyl)piperidin-1-yl-methyl]-2-methylpropyl}-4-methylbenzamide], for which the IC50 in data set [2] was found to be 950 nM; in data set [1] it was 210 nM.

Consider `Cc1cc(C)c(NC(=O)N[C@@H](CN2CCN(Cc3ccc(Cl)c(Cl)c3)CC2)C(C)C)c(C)c1` [compound 93], for which the melting point (in general, the temperature, or range, at which the solid turns liquid) was 271.1 to 275.5 °C. For the same molecule, the IC50 in data set [2] was 3370 nM. This molecule also came in with an IC50 in data set [1] of 60 nM.
